Data from patent US10610520B2, “Heterocyclic compound” (Takeda Pharmaceutical Company Limited, priority 2016, dated 2020).

molecular target: T1, His-hMAGL (recombinant polyhistidine tagged human MAGL protein) (Homo sapiens, UniProt Q99685); test: Measurement of MAGL inhibitory activity (arachidonic acid production from 2-arachidonylglycerol, RapidFire-mass spectrometry); type: biochemical; settings: MAGL inhibitory rate, test compound 10 μM, 60 min preincubation, 2-arachidonylglycerol substrate
T1 construct: made in house; host or cells: E. coli BL21(DE3)
T1 sequence (Q99685 1-303): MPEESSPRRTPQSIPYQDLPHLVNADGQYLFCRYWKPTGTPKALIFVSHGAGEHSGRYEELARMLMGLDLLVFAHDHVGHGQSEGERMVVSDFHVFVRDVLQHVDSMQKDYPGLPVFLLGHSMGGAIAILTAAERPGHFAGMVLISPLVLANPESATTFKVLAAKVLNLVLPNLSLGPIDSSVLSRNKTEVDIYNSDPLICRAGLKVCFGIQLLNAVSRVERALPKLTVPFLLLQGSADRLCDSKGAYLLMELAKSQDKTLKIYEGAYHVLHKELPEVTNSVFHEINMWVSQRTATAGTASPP
How it was run: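 Arachidonic acid formed was quantified by online solid-phase extraction and triple-quadrupole MS in negative SRM mode against a d8 internal standard. Reaction: recombinant His-hMAGL (7.5 ng/mL, pH 7.5 Tris buffer with Triton X-100 and BSA) plus 2-AG (5 μL of 150 μM stock) for 10 min at room temperature, quenched with 2% formic acid. Percent inhibition corrected for enzyme-free background.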

inhibition at 10 µM [%]	Compound
100	O=C1CCC2(CN(C(=O)N3CCC(Cc4ccc(Cl)cc4)CC3)C2)N1 [Example 99, 2-((4-(4-chlorobenzyl)piperidin-1-yl)carbonyl)-2,5-diazaspiro[3.4]octan-6-one]
100	COc1ccc(-c2ccc3c(Cl)c(C(=O)N4CC5(CCC(=O)N5)C4)sc3c2)cc1 [Example 193, 2-((3-chloro-6-(4-methoxyphenyl)-1-benzothiophen-2-yl)carbonyl)-2,5-diazaspiro[3.4]octan-6-one]
99	Cc1ccc(-c2ccc3c(Cl)c(C(=O)N4CC5(CCC(=O)N5)C4)sc3c2)c(F)c1 [Example 207, 2-((3-chloro-6-(2-fluoro-4-methylphenyl)-1-benzothiophen-2-yl)carbonyl)-2,5-diazaspiro[3.4]octan-6-one]
96	O=C1CCC2(CCN(C(=O)N3CC(COc4ccc(C(F)(F)F)cc4F)C3)C2)N1 (stereo not shown) [Example 319, 7-((3-((2-fluoro-4-(trifluoromethyl)phenoxy)methyl)azetidin-1-yl)carbonyl)-1,7-diazaspiro[4.4]nonan-2-one]
97	O=C1CCC2(CN(C(=O)c3sc4cc(-c5cnc(C(F)(F)F)nc5)ccc4c3Cl)C2)N1 [Example 231, 2-((3-chloro-6-(2-(trifluoromethyl)pyrimidin-5-yl)-1-benzothiophen-2-yl)carbonyl)-2,5-diazaspiro[3.4]octan-6-one]
99	O=C1CCC2(CN(C(=O)c3ccc(-c4ccc(C5(C(F)(F)F)CC5)cc4)cc3)C2)N1 [Example 63, 2-((4′-(1-(trifluoromethyl)cyclopropyl)biphenyl-4-yl)carbonyl)-2,5-diazaspiro[3.4]octan-6-one]
100	O=C1CCC2(CN(C(=O)c3sc4cc(-c5ccc(F)c(F)c5)ccc4c3Cl)C2)N1 [Example 216, 2-((3-chloro-6-(3,4-difluorophenyl)-1-benzothiophen-2-yl)carbonyl)-2,5-diazaspiro[3.4]octan-6-one]
96	Cc1cc(C(F)(F)F)ccc1-c1ccc(C(=O)N2CC3(CCC(=O)N3)C2)cc1 [Example 92, 2-((2′-methyl-4′-(trifluoromethyl)biphenyl-4-yl)carbonyl)-2,5-diazaspiro[3.4]octan-6-one]
100	O=C1CCC2(CN(C(=O)c3ccc(-c4csc5ccccc45)cc3)C2)N1 [Example 67, 2-(4-(1-benzothiophen-3-yl)benzoyl)-2,5-diazaspiro[3.4]octan-6-one]
100	O=C1NC2(CO1)CN(C(=O)c1sc3cc(OC(F)(F)F)cc(F)c3c1Cl)C2 [Example 269, 2-((3-chloro-4-fluoro-6-(trifluoromethoxy)-1-benzothiophen-2-yl)carbonyl)-7-oxa-2,5-diazaspiro[3.4]octan-6-one]
100	Cc1cc(CO[C@H]2C[C@H](C(=O)N3CC4(COC(=O)N4)C3)C2)ccc1Cl [Example 358, 2-((trans-3-((4-chloro-3-methylbenzyl)oxy)cyclobutyl)carbonyl)-7-oxa-2,5-diazaspiro[3.4]octan-6-one]
100	Cc1cscc1-c1ccc2c(Cl)c(C(=O)N3CC4(CCC(=O)N4)C3)sc2c1 [Example 236, 2-((3-chloro-6-(4-methyl-3-thienyl)-1-benzothiophen-2-yl)carbonyl)-2,5-diazaspiro[3.4]octan-6-one]
100	O=C1CCC2(CN(C(=O)c3sc4cc(-c5ccc(F)cc5Cl)ccc4c3Cl)C2)N1 [Example 224, 2-((3-chloro-6-(2-chloro-4-fluorophenyl)-1-benzothiophen-2-yl)carbonyl)-2,5-diazaspiro[3.4]octan-6-one]
101	O=C1NC2(CO1)CN(C(=O)c1sc3c(C(F)(F)F)cccc3c1C(F)F)C2 [Example 277, 2-((3-(difluoromethyl)-7-(trifluoromethyl)-1-benzothiophen-2-yl)carbonyl)-7-oxa-2,5-diazaspiro[3.4]octan-6-one]
99	CC(C)(C)c1ccc(-c2ccc(C(=O)N3CC4(CCC(=O)N4)C3)cc2)cc1 [Example 54, 2-((4′-tert-butylbiphenyl-4-yl)carbonyl)-2,5-diazaspiro[3.4]octan-6-one]
98	O=C1CCC2(CN(C(=O)c3ccc(-c4ccc5cnsc5c4)cc3)C2)N1 [Example 73, 2-(4-(1,2-benzothiazol-6-yl)benzoyl)-2,5-diazaspiro[3.4]octan-6-one]
101	Cc1cc2c(Cl)c(C(=O)N3CC4(COC(=O)N4)C3)sc2cc1OC(F)(F)F [Example 295, 2-((3-chloro-5-methyl-6-(trifluoromethoxy)-1-benzothiophen-2-yl)carbonyl)-7-oxa-2,5-diazaspiro[3.4]octan-6-one]

inhibition at 10 µM [%]	Compound
87	O=C1CCC2(CN(C(=O)c3sc4cc(-c5ccc(C(F)(F)F)nc5)ccc4c3Cl)C2)N1 [Example 228, 2-((3-chloro-6-(6-(trifluoromethyl)pyridin-3-yl)-1-benzothiophen-2-yl)carbonyl)-2,5-diazaspiro[3.4]octan-6-one]
103	O=C1CCC2(CN(C(=O)N3CC(COc4cc(Br)c(C(F)(F)F)cc4F)C3)C2)N1 [Example 24, 2-((3-((5-bromo-2-fluoro-4-(trifluoromethyl)phenoxy)methyl)azetidin-1-yl)carbonyl)-2,5-diazaspiro[3.4]octan-6-one]
98	Cc1ccc(-c2ccc(C(=O)N3CC4(CCC(=O)N4)C3)cc2)c(C)c1 [Example 88, 2-((2′,4′-dimethylbiphenyl-4-yl)carbonyl)-2,5-diazaspiro[3.4]octan-6-one]
99	Cc1cc(F)cc(-c2ccc3c(Cl)c(C(=O)N4CC5(CCC(=O)N5)C4)sc3c2)c1 [Example 211, 2-((3-chloro-6-(3-fluoro-5-methylphenyl)-1-benzothiophen-2-yl)carbonyl)-2,5-diazaspiro[3.4]octan-6-one]
99	CC(C)c1cccc(-c2ccc3c(Cl)c(C(=O)N4CC5(CCC(=O)N5)C4)sc3c2)c1 [Example 188, 2-((3-chloro-6-(3-isopropylphenyl)-1-benzothiophen-2-yl)carbonyl)-2,5-diazaspiro[3.4]octan-6-one]
93	O=C1CCC2(CN(C(=O)c3ccc(-c4cccc5c4OCC5)cc3)C2)N1 [Example 94, 2-(4-(2,3-dihydro-1-benzofuran-7-yl)benzoyl)-2,5-diazaspiro[3.4]octan-6-one]
99	O=C1CCC2(CN(C(=O)c3ccc(-c4cccc(C5(C(F)(F)F)CC5)c4)cc3)C2)N1 [Example 64, 2-((3′-(1-(trifluoromethyl)cyclopropyl)biphenyl-4-yl)carbonyl)-2,5-diazaspiro[3.4]octan-6-one]
98	O=C1CCC2(CN(C(=O)c3ccc(-c4ccc(Cl)cc4)cc3)C2)N1 [Example 87, 2-((4′-chlorobiphenyl-4-yl)carbonyl)-2,5-diazaspiro[3.4]octan-6-one]
101	O=C1NC2(CO1)CN(C(=O)c1sc3cc(F)cc(OC(F)(F)F)c3c1Cl)C2 [Example 314, 2-((3-chloro-6-fluoro-4-(trifluoromethoxy)-1-benzothiophen-2-yl)caarbonyl)-7-oxa-2,5-diazaspiro[3.4]octan-6-one]
100	Cc1c(OC(F)(F)F)ccc2c(Cl)c(C(=O)N3CC4(COC(=O)N4)C3)sc12 [Example 286, 2-((3-chloro-7-methyl-6-(trifluoromethoxy)-1-benzothiophen-2-yl)carbonyl)-7-oxa-2,5-diazaspiro[3.4]octan-6-one]
100	O=C1CCC2(CN(C(=O)c3sc4cc(-c5ccccc5OC(F)(F)F)ccc4c3Cl)C2)N1 [Example 199, 2-((3-chloro-6-(2-(trifluoromethoxy)phenyl)-1-benzothiophen-2-yl)carbonyl)-2,5-diazaspiro[3.4]octan-6-one]
101	O=C1NC2(CO1)CN(C(=O)c1sc3ccc(OC(F)(F)F)cc3c1Cl)C2 [Example 262, 2-((3-chloro-5-(trifluoromethoxy)-1-benzothiophen-2-yl)carbonyl)-7-oxa-2,5-diazaspiro[3.4]octan-6-one]
100	Cc1ncccc1-c1ccc2c(Cl)c(C(=O)N3CC4(CCC(=O)N4)C3)sc2c1 [Example 229, 2-((3-chloro-6-(2-methylpyridin-3-yl)-1-benzothiophen-2-yl)carbonyl)-2,5-diazaspiro[3.4]octan-6-one]
98	O=C1CCC2(CN(C(=O)c3sc4cc(Br)ccc4c3C3CC3)C2)N1 [Example 245, 2-((6-bromo-3-cyclopropyl-1-benzothiophen-2-yl)carbonyl)-2,5-diazaspiro[3.4]octan-6-one]
102	O=C1CCC2(CN(C(=O)N3CCC(COc4ccc(C(F)(F)F)cc4Cl)CC3)C2)N1 [Example 3, 2-((4-((2-chloro-4-(trifluoromethyl)phenoxy)methyl)piperidin-1-yl)carbonyl)-2,5-diazaspiro[3.4]octan-6-one]
90	Cc1c(F)ccc(F)c1-c1ccc(C(=O)N2CC3(CCC(=O)N3)C2)cc1 [Example 91, 2-((3′,6′-difluoro-2′-methylbiphenyl-4-yl)carbonyl)-2,5-diazaspiro[3.4]octan-6-one]
99	O=C1CCC2(CN(C(=O)c3sc4cc(-c5ccc(Cl)cc5F)ccc4c3Cl)C2)N1 [Example 225, 2-((3-chloro-6-(4-chloro-2-fluorophenyl)-1-benzothiophen-2-yl)carbonyl)-2,5-diazaspiro[3.4]octan-6-one]
